For one data set, the system named is HCT-116. Kind of data set: Cytotoxicity against human HCT-116 cells assessed as reduction in cell viability incubated for 48 hrs by MTT assay. The format is functional, cell-based. The note with it: HCT-116, 48 h. (In general: Tetrazolium dyes change colour on reduction, which living cells bring about.)
The test system of a further data set is MDA-MB-231. Put plainly: Cytotoxicity against human MDA-MB-231 cells assessed as reduction in cell viability incubated for 48 hrs by MTT assay. The following applies: MDA-MB-231, 48 h. The format is functional, cell-based.
The next data set has as its system MCF-10A. Put plainly: Cytotoxicity against human MCF-10 A cells assessed as reduction in cell viability at 32 uM incubated for 48 hrs by MTT assay relative to control. The format is toxicity, cell-based.
For another data set, the system named is L02. Kind of data set: Cytotoxicity against human L02 cells assessed as reduction in cell viability at 32 uM incubated for 48 hrs by MTT assay relative to control. The data set is classed as toxicity, cell-based. The following applies: l02, 48 h.
Data set [1] can be described thus: Acute toxicity in po dosed ICR mouse assessed as maximum tolerated dose measured after 7 days. The data set is classed as organism-based. The note with it: in vivo, time 7 day.

On to `COc1cc(/C=C/c2ccc(OCCCCCC(=O)NO)cc2)cc(OC)c1`, for which the IC50 in the data set with HCT-116 came out at 4.1 µM; with MDA-MB-231 it was 3.56 µM.

Turning to `COc1cc(/C=C/c2ccc(OCc3ccc(C(=O)NO)cc3)cc2)cc(OC)c1`, the IC50 is 10.4 µM in the data set with HCT-116 and 6.88 µM in the data set with MDA-MB-231.

In the case of `O=C(CCCCCCC(=O)Nc1ccccc1)NO` [VORINOSTAT], the Activity with MCF-10A came to 24%; in the data set on L02 it was 26%. Moreover, the MTD at 168 h in data set [1] is > 400 mg/kg.

On to `COc1cc(/C=C/c2ccc(OCc3cccc(C(=O)NO)c3)cc2)cc(OC)c1`, for which the IC50 is 13.7 µM with HCT-116 and 9.22 µM with MDA-MB-231.

Take `COc1cc(/C=C/c2ccc(OCCCCCCCC(=O)NO)cc2)cc(OC)c1`: the IC50 with HCT-116 stood at 12.6 µM; with MDA-MB-231 it was 5.05 µM.

For `COc1cc(/C=C/c2ccc(OCCCC(=O)NO)cc2)cc(OC)c1`, the IC50 is 5.2 µM with HCT-116 and 3.89 µM in the data set with MDA-MB-231.

For `COc1cc(/C=C/c2ccc(OCCc3cn(CC(=O)NO)nn3)cc2)cc(OC)c1`, the IC50 was 7.44 µM in the data set on HCT-116 and 6.52 µM in the data set on MDA-MB-231.

With `COc1cc(/C=C/c2ccc(OCc3ccccc3C(=O)NO)cc2)cc(OC)c1`, the IC50 came out at 13.9 µM with HCT-116 and 7.18 µM in the data set with MDA-MB-231.

For `COc1cc(/C=C/c2ccc(OCCCCC(=O)NO)cc2)cc(OC)c1`, the figures for the IC50 in the data set with HCT-116 and with MDA-MB-231 were 3.35 µM and 4.21 µM, respectively.

With `COc1cc(/C=C/c2ccc(OCCN3CCN(CC(=O)NO)CC3)cc2)cc(OC)c1`, the half-maximal inhibitory concentration (IC50) amounted to 8.87 µM in the data set with HCT-116 and 7.42 µM in the data set on MDA-MB-231.

As for `COc1cc(/C=C/c2ccc(O)cc2)cc(OC)c1` [PTEROSTILBENE], the IC50 was found to be 34.1 µM in the data set on HCT-116 and 31.2 µM in the data set on MDA-MB-231. Further, the Activity result with MCF-10A and in the data set on L02 was “Non-Toxic” each time. Further, in data set [1], the MTD at 168 h was > 400 mg/kg.

`COc1cc(/C=C/c2ccc(NCc3ccc(/C=C/C(=O)NO)cc3)cc2)cc(OC)c1`: the IC50 in the data set on HCT-116 amounted to 11.2 µM; in the data set on MDA-MB-231, 5.95 µM.

The IC50 is the concentration that gives 50% inhibition. In general, MTD refers to the highest dose tested that stayed within the study's limit of toxicity.

Values taken from ChEMBL document CHEMBL5154636, “Discovery of STAT3 and Histone Deacetylase (HDAC) Dual-Pathway Inhibitors for the Treatment of Solid Cancer” (J Med Chem, 2021).
